Experimental data published in patent US8038997B2, “Anti-marinobufagenin antibodies and methods for their use” (priority 2005, dated 2011).

How the values were obtained:
4H2 mAb = experiment: Cross-reactivity of the 4H2 mAb (50% displacement of bound MBG); format: binding, mouse; conditions: amount of MBG for 50% displacement versus amount of cross-reactant
From the text: (§1) The percent cross-reactivity of the 3E9, 4G4 and 4H2 mAbs was defined as the ratio of the amount of MBG required to displace 50% of maximally bound MBG from the particular anti-MBG mAb, versus the amount of the cross-reactant to give the same 50% displacement. The binding specificities of the 3E9 mAb for a panel of steroids are shown in Table I; those for the 4112 and 4G4 mAbs are shown in Table II.

4G4 mAb = experiment: Cross-reactivity of the 4G4 mAb (50% displacement of bound MBG); format: binding, mouse; conditions: amount of MBG for 50% displacement versus amount of cross-reactant
From the text: as §1

3E9 mAb = experiment: Cross-reactivity of the 3E9 mAb (50% displacement of bound MBG); format: binding, mouse; conditions: amount of MBG for 50% displacement versus amount of cross-reactant
From the text: as §1

Sprague-Dawley rats = experiment: Experimental uremic cardiomyopathy: partial nephrectomy, MBG infusion, immunization against MBG-BSA
Experimental: (§2) Male, Sprague-Dawley were use in this study. Rats subjected to sham surgery and no MBG infusion or partial nephrectomy were referred to as Sham (n=18). […] MBG-infused rats were referred to as MBG (n=20). Rats immunized against MBG-BSA conjugate before partial nephrectomy were referred to as PNx-IM (n=18).
(§3) MBG was isolated from toad (Bufo Marinus) venom. […] MBG was infused for a period of 4 weeks at 10 μg/kg per day with an osmotic minipump (Alzet Model 2004, Durect Corp).
(§4) Partial nephrectomy (five-sixth nephrectomy) was induced by removal of the right kidney and selective infarction of two-thirds of the left kidney with silk ligatures.
(§5) Rats were immunized with an MBG-BSA conjugate and subjected to partial nephrectomy. The immunization schedule was 3 weekly injections (250 μg/kg per week SQ) in complete Freund's adjuvant before the partial nephrectomy with a last boost at the time of surgery.
(§6) BP was measured once a week by the tail-cuff method in conscious, restrained rats with equipment made by IITC, Inc (Amplifier model 229, Monitor model 31, Test chamber Model 306; IITC Life Science). Before sacrifice at 4 weeks, animals had ventricular pressures determined by placement of a 2F Millar Microtip Catheter Transducer (Millar Instruments Inc) into the left ventricle through a carotid insertion. Hemodynamic data were acquired at 500 Hz and stored electronically using a BioPac MP110 acquisition system and AcqKnowledge 4.7.3 software (BIOPAC Systems, Inc). The values of left ventricular end-diastolic pressure (LVEDP), systolic pressure, developed pressure, maximal velocity of rise or fall in pressure (dP/dt) and the time constant for isovolumic relaxation were determined using standard methods. At the end of 4 weeks, 2D and M-mode echocardiographic studies were performed using a Philips Sonos 5500 cardiovascular ultrasound imaging system (Philips Medical Systems) equipped with a 15 MHz linear transducer. Parasternal long-axis and short-axis views were obtained.
(§7) MBG and ouabain-like compound (OLC) in plasma and urine was determined at 4 weeks after extraction with C-18 columns.
(§8) At the time of sacrifice, left ventricles were quickly dissected out, frozen in liquid nitrogen, and stored at −80° C. until further analysis. Western blot analysis was performed using SDS-PAGE gels (Ready Gel, BioRad).
(§9) Total protein carbonyl concentration of both the plasma and left ventricular homogenate was determined by ELISA using the Zentech PC Test kit (Northwest Life Science Specialties). Total plasma malondialdehyde was measured spectrophotometrically using the Bioxytech MDA-586 kit (Oxis Research).
(§10) To measure sarcoplasmic reticulum calcium ATPase activity, which is predominantly SERCA2a activity in left ventricles of rat cardiac tissue, the method of Simonides and van Hardeveld (Simonides and van Hardeveld, Anal. Biochem. 191:321-331, 1990) was used with minor modifications.
(§11) Hematocrit was measured from whole blood collected in heparinized capillary tubes and spun on a microhematocrit centrifuge (Fisher Scientific). Plasma creatinine was determined spectrophotometrically with a colorimetric end point assay (Teco Diagnostics). Plasma aldosterone levels were measured by ELISA (Cayman). Plasma parathyroid hormone was assayed using the Rat Intact PTH ELISA kit (Immutopics). All of the analyses were performed on blood collected upon sacrifice at 4 weeks.

[1] = as above; conditions: male, Sprague-Dawley, rat, plasma, other: infusion with an osmotic minipump, 10 μg/kg per day
Experimental: as §2, §3, §4, §5, §6, §7, §8, §9, §10, §11

[2] = tested on: polyclonal antidigoxin rabbit antibody; experiment: DELFIA immunoassay, displacement of digoxin standards; format: binding; conditions: equimolar concentrations of MBG and its conjugate
From the text: Prior to immunization, the conjugate MBG-glycoside-BSA was compared with MBG for its ability to react with polyclonal antidigoxin rabbit antibody, using a DELFIA immunoassay.

[3] = 4 weeks after MBG infusion or immunization prior to partial nephrectomy

Row | Compound | 4H2 Percent cross-immunoreactivity (4H2 mAb) | 4G4 Percent cross-immunoreactivity (4G4 mAb) | Percent cross-immunoreactivity (3E9 mAb) | also measured
1 | CC(=O)O[C@H]1[C@H]2O[C@]23[C@@H]2CC[C@]4(O)C[C@@H](O)CC[C@]4(C)[C@H]2CC[C@]3(C)[C@H]1c1ccc(=O)oc1 [Cinobufotalin] | 58% | 43% | 4% | 
2 | C[C@]12CC[C@H](O)C[C@@]1(O)CC[C@@H]1[C@@H]2CC[C@]2(C)[C@@H](c3ccc(=O)oc3)CC3O[C@@]312 (stereo partly drawn) [MBG, 3β,5β-dihydroxy-14,15-epoxy bufadienolide] | 100% | 100% | 100% | Hematocrit (Sprague-Dawley rats; [3]): 44.6 ± 0.9%; Left ventricular carbonylated protein (Sprague-Dawley rats; [3]): 505 ± 22 pmol/mg protein; Plasma [OLC] (Sprague-Dawley rats; [3]): 493 ± 41 pmol/L; Plasma aldosterone (Sprague-Dawley rats; [3]): 322 ± 38 pg/mL; Plasma carbonylated protein (Sprague-Dawley rats; [3]): 378 ± 15 pmol/mg protein; Plasma creatinine (Sprague-Dawley rats; [3]): 0.52 ± 0.07 mg/dL; Plasma parathyroid hormone (Sprague-Dawley rats; [3]): 41 ± 9 pg/mL; Plasma total malondialdehyde (Sprague-Dawley rats; [3]): 474 ± 41 nm; Urinary MBG excretion (UMBGV) (Sprague-Dawley rats; [3]): 49.1 ± 3.5 pmol/24 h; Urinary OLC excretion (UOLCV) (Sprague-Dawley rats; [3]): 10.6 ± 0.9 pmol/24 h; left ventricular hemodynamics (dP/dt, LVEDP, time constant for isovolumic relaxation) (Sprague-Dawley rats; Millar catheter after 4 weeks): only the changes in LVEDP and time constant for isovolumic relaxation achieved statistical significance; heart weight / cardiac size (Sprague-Dawley rats; after 4 weeks): significant increases in heart weight; echocardiographic changes (wall thickness, chamber size, FS) (Sprague-Dawley rats; at 4 weeks, MBG versus sham, immunization versus partial nephrectomy): not associated with significant changes; systolic BP during the 4 weeks of observation (Sprague-Dawley rats; tail-cuff, conscious rats, MBG versus control, immunization versus partial nephrectomy): some increases in BP; concentration at 4 weeks [1]: 0.546 ± 0.034 nM; displacement of digoxin standards [2]: exactly similar displacement of digoxin standards
3 | CC(=O)[C@H]1CC[C@H]2[C@@H]3CCC4=CC(=O)CC[C@]4(C)[C@H]3CC[C@]12C [Progesterone] |  |  | 0.3% | 
4 | C[C@H]1O[C@@H](O[C@H]2[C@@H](O)C[C@H](O[C@H]3[C@@H](O)C[C@H](O[C@H]4CC[C@@]5(C)[C@H](CC[C@@H]6[C@@H]5CC[C@]5(C)[C@@H](C7=CC(=O)OC7)CC[C@]65O)C4)O[C@@H]3C)O[C@@H]2C)C[C@H](O)[C@@H]1O [Digitoxin] |  |  | 0.7% | 
5 | CC(=O)S[C@@H]1CC2=CC(=O)CC[C@]2(C)[C@H]2CC[C@@]3(C)[C@@H](CC[C@@]34CCC(=O)O4)[C@H]12 [Spironolactone] |  |  | 0.22% | 
6 | C[C@]12CC[C@H](O)C[C@H]1CC[C@@H]1[C@@H]2CC[C@]2(C)[C@@H](c3ccc(=O)oc3)C[C@H]3O[C@]132 [Resibufagenin] | 0.2% | 0.6% |  | 
7 | C[C@H]1O[C@@H](O[C@H]2[C@@H](O)C[C@H](O[C@H]3[C@@H](O)C[C@H](O[C@H]4CC[C@@]5(C)[C@H](CC[C@@H]6[C@@H]5C[C@@H](O)[C@]5(C)[C@@H](C7=CC(=O)OC7)CC[C@]65O)C4)O[C@@H]3C)O[C@@H]2C)C[C@H](O)[C@@H]1O [Digoxin] | 0.03% | 0.003% | 1.8% | 
8 | C[C@]12CC[C@H](OC(=O)CCCCCCC(=O)N[C@@H](CCCN=C(N)N)C(=O)O)C[C@@]1(O)CC[C@@H]1[C@@H]2CC[C@]2(C)[C@@H](c3ccc(=O)oc3)C[C@H]3O[C@]132 [Marinobufotoxin] | 55% | 44% | 4% | 
9 | C[C@]12C[C@H](O)[C@H]3[C@@H](CCC4=CC(=O)CC[C@@]43C)[C@@H]1CC[C@@H]2C(=O)CO [Corticosterone] |  |  | <0.01% | 
10 | CC(=O)O[C@H]1[C@H]2O[C@]23[C@@H]2CC[C@@H]4C[C@@H](O)CC[C@]4(C)[C@H]2CC[C@]3(C)[C@H]1c1ccc(=O)oc1 [Cinobufagin] | 0.11% | 0.07% | 1.4% | 
11 | C[C@]12C=CC(=O)C=C1CC[C@@H]1[C@@H]2C(=O)C[C@@]2(C)[C@H]1CC[C@]2(O)C(=O)CO [Prednisone] |  |  | <0.01% | 
12 | C[C@]12C[C@@H](O)[C@H]3[C@@H](CC[C@]4(O)C[C@@H](O)C[C@@H](O)[C@]34CO)[C@@]1(O)CC[C@@H]2C1=CC(=O)OC1 [Ouabagenin] |  |  | <0.01% | 
13 | Telocinobufotoxin |  |  | 7% | 
14 | C[C@]12CC[C@H](O)C[C@H]1CC[C@@H]1[C@@H]2CC[C@]2(C)[C@@H](c3ccc(=O)oc3)CC[C@]12O [Bufalin] | 0.07% | 0.08% | 0.25% | 
15 | C[C@@H]1O[C@@H](O[C@@H]2C=C3CC[C@@H]4[C@H](CC[C@]5(C)[C@@H](c6ccc(=O)oc6)CC[C@]45O)[C@@]3(C)CC2)[C@H](O)[C@H](O)[C@H]1O [Proscillaridin] |  |  | 3% | 
16 | C[C@@H]1O[C@@H](O[C@H]2C[C@@H](O)[C@]3(CO)[C@H]4[C@H](O)C[C@]5(C)[C@@H](C6=CC(=O)OC6)CC[C@]5(O)[C@@H]4CC[C@]3(O)C2)[C@H](O)[C@H](O)[C@H]1O [Ouabain] | 0.03% | 0.004% | 0.3% | 
